Assay results taken from PubChem BioAssay (NCI).
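Assay format: 96-well plates, 48-hour exposure. At the GI50, growth is halved. At the TGI there is no net growth.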

Key:
Assay in all cases: DTP human tumour cell line panel, 48 h
OVCAR-4 ovarian = test system: OVCAR-4 ovarian
OVCAR-3 ovarian = test system: OVCAR-3 ovarian
T-47D breast = test system: T-47D breast
M14 melanoma = test system: M14 melanoma
TK-10 renal = test system: TK-10 renal
U251 CNS = test system: U251 CNS
MDA-MB-435 = test system: MDA-MB-435
KM12 colon = test system: KM12 colon
UACC-257 melanoma = test system: UACC-257 melanoma
HS 578T breast = test system: HS 578T breast

SMILES | GI50 (OVCAR-4 ovarian) [µM] | TGI (OVCAR-4 ovarian) [µM] | GI50 (OVCAR-3 ovarian) [µM] | TGI (OVCAR-3 ovarian) [µM] | GI50 (T-47D breast) [µM] | TGI (T-47D breast) [µM] | GI50 (M14 melanoma) [µM] | TGI (M14 melanoma) [µM] | GI50 (TK-10 renal) [µM] | TGI (TK-10 renal) [µM] | GI50 (U251 CNS) [µM] | TGI (U251 CNS) [µM] | GI50 (MDA-MB-435) [µM] | TGI (MDA-MB-435) [µM] | GI50 (KM12 colon) [µM] | TGI (KM12 colon) [µM] | GI50 (UACC-257 melanoma) [µM] | TGI (UACC-257 melanoma) [µM] | GI50 (HS 578T breast) [µM] | TGI (HS 578T breast) [µM]
CC1=C(c2ccccc2)C(O)(c2ccccc2)C(C)C1=O (centres undefined) | 24.3 | > 100 | 16.5 | > 100 | 23.1 | > 100 | 4.72 | 33.7 | 30.1 | > 100 | 22.1 | > 100 | 2.13 | 5.47 | 7.52 | > 100 | 55 | > 100 | – | –
NC(=O)c1cc([N+](=O)[O-])c(Cl)c([N+](=O)[O-])c1Cl | 1.77 | 3.19 | 1.14 | 2.35 | – | – | – | – | 1.61 | 2.99 | 1.2 | 2.49 | 1.93 | 3.73 | 1.61 | 3.02 | 1.13 | 2.38 | 1.98 | 4.98
COc1ccc2c(c1)c(-c1nc(-c3c[nH]c4ccncc34)cs1)cn2C | 1.89 | 3.71 | 1.88 | 3.34 | – | – | 1.78 | 3.26 | 1.88 | 3.39 | 1.87 | 3.3 | 1.59 | 2.96 | 1.73 | 3.2 | 1.68 | 3.09 | 2.03 | 4.02
C[CH2][Ge]([CH2]C)([CH2]C)[O]C(=O)C(OC(C)=O)c1ccccc1 (centres undefined) | > 100 | > 100 | > 100 | > 100 | – | – | > 100 | > 100 | > 100 | > 100 | > 100 | > 100 | – | – | > 100 | > 100 | > 100 | > 100 | – | –
ClC/C=C/COC1CCCCO1 (centres undefined) | – | > 100 | – | > 100 | – | – | – | > 100 | – | > 100 | – | > 100 | – | – | – | > 100 | – | > 100 | – | –
COC(=O)N/N=C(\C)c1c(O)cc(C)oc1=O | – | > 100 | – | – | – | – | – | > 100 | – | > 100 | – | > 100 | – | – | – | > 100 | – | > 100 | – | –
CN(C)c1ccc2oc(=O)c3ccccc3c2c1 | – | > 100 | – | > 100 | – | > 100 | – | > 100 | – | > 100 | – | 58.7 | – | > 100 | – | – | – | > 100 | – | 92
COc1ccc2c3c([nH]c2c1[N+](=O)[O-])C(C)N(Cc1ccccc1)CC3 (centres undefined) | – | > 100 | – | 49 | – | – | – | 28.1 | – | > 100 | – | 8.73 | – | – | – | > 100 | – | 14.5 | – | –
CC1=C(/C=C/C(C)=C/C2CC(N(C)C)=CC(=O)O2)C(C)(C)CCC1 (centres undefined) | – | 31.7 | – | 23.7 | – | – | – | 28.3 | – | 27.5 | – | 28.7 | – | – | – | 31.2 | – | 24.9 | – | –
O=C1CC(c2cccc(F)c2)Nc2cc3c(cc21)OCO3 (centres undefined) | > 100 | > 100 | < 0.01 | > 100 | – | > 100 | < 0.01 | > 100 | > 100 | > 100 | < 0.01 | > 100 | < 0.01 | < 0.01 | – | – | < 0.01 | > 100 | – | > 100
CC(=O)c1c2c(cc3c1CC1(C3)Cc3cc4c(c(C(C)=O)c3C1)CCC4)CCC2 | – | > 100 | – | > 100 | – | – | – | > 100 | – | > 100 | – | > 100 | – | – | – | > 100 | – | > 100 | – | –
O=C(/C=C/c1ccccc1F)c1ccc(Cl)c(Cl)c1 | – | > 100 | – | > 71.6 | – | – | – | > 100 | – | > 100 | – | – | – | – | – | 45 | – | > 100 | – | –
COc1cc(/C=C/C(=O)/C=C/c2ccc(-n3ccnc3C)cc2)ccc1O | 8.87 | > 100 | 2.85 | 8.41 | 3.12 | 15.1 | 2.25 | 5.94 | 4.74 | 90.4 | 2.31 | 6.4 | – | – | 2.07 | 4.25 | 3.33 | 13.5 | – | –
CC1=C(C(=O)Nc2ccccc2)C(c2cccc3ccccc23)C(C(=O)Nc2ccccc2)=C(C)N1 | – | – | – | 26.4 | – | – | – | 32.5 | – | 96.7 | – | 31.3 | – | – | – | – | – | 39.2 | – | –
CN(c1ccc(C(=O)c2ccc(N(C)S(C)(=O)=O)cc2)cc1)S(C)(=O)=O | – | > 100 | – | – | – | – | – | – | – | > 100 | – | > 100 | – | – | – | > 100 | – | > 100 | – | –
COc1ccc2c(c1)[nH]c(=O)c1c3cccc(F)c3cn21 | 0.126 | 28.8 | 0.0295 | 0.0774 | 42.1 | > 100 | 0.0463 | > 100 | 9.55 | > 100 | 0.0472 | 14.8 | – | – | 0.0436 | > 100 | > 92.9 | > 100 | 0.0299 | 0.0904
O=C1C=CC=C/C1=C1/SC(c2ccccc2)=C(O)N1c1ccccc1 | – | > 100 | – | > 100 | – | – | – | – | – | > 100 | – | > 100 | – | – | – | > 100 | – | > 100 | – | –
O=S(=O)(O)c1cc(O)c(N=Nc2ccc(O)cc2O)c2ccccc12 | – | > 100 | – | > 100 | – | – | – | > 100 | – | > 100 | – | > 100 | – | > 100 | – | > 100 | – | > 100 | – | > 100
COc1ccc2c(c1)nc(C(=O)c1ccco1)c(C(F)(F)F)[n+]2[O-] | > 100 | > 100 | > 100 | > 100 | 77.4 | > 100 | > 100 | > 100 | 86.8 | > 100 | > 100 | > 100 | > 100 | > 100 | > 100 | > 100 | – | – | > 100 | > 100
O=C(O)[C@H](NS(=O)(=O)c1ccc(F)cc1)c1ccccc1 | – | > 100 | – | > 100 | – | – | – | > 100 | – | > 100 | – | > 100 | – | – | – | – | – | > 100 | – | –
